Read-outs that look alike come from different tables or passages of the source. Primed or numbered codes have the meaning given here. Ends that are not written are not given here. Biotin′ = not defined here
Legend:
murine kidney homogenate = experiment: Ligand sensor device selectivity assay, murine kidney homogenate; format: binding, mouse
Protocol: (§1) Identification of a peptide of interest. Mice were euthanized with carbon dioxide gas and cats were euthanized with an overdose of pentobarbital administered intravenously (the use of animals was approved by the Auburn University Animal Care and Use Committee). After death, animals were perfused with ice-cold Phosphate Buffered Saline (PBS). Samples of mouse and cat skeletal muscle, mouse kidney, liver and brain were harvested. Tissue aliquots (200 mg) were homogenized in 4 ml PBS using a manual homogenizer. Immediately after homogenization samples were microcentrifuged for 10 min at 3,000 rpm, and the supernatants containing tissue vesicles were separated from the pellets. […] Vesicle concentration and integrity were examined by dark-field microscopy (Vodyanoy et al. (1994) Langmuir 10: 1354–1357). Dilutions of tissue samples were prepared in PBS as follows: 1:5, 1:25, 1:125, and 1:625. To perform the blocking experiment, free ASSLNIA peptide (1 mg/ml) synthesized by Research Genetics, Inc. (Huntsville, Ala., USA) was added to the murine skeletal muscle tissue homogenate (50 mg/ml) and incubated at room temperature for 1 hour with agitation. Protein concentration in tissue samples was determined using Bio-Rad® Protein Assay Kit (Bio-Rad Laboratories, Hercules, Calif., USA).
(§2) Coupling the peptide of interest to the sensor. The sensor, prepared as described above by the addition of a Langmuir-Blodgett film of biotinylated lipid, was then coupled to the peptide of interest by molecular assembly with streptavidin. Streptavidin was diluted to a final concentration of 0.01 mg/ml in the subphase solution and exposed to the LB film for 2 hours; the film was then rinsed with distilled water and dried for 2 min in ambient air. […] If necessary, this preparation step could be followed by a blocking step with a biotin solution. In this manner, the peptide of interest was coupled with the phospholipid via molecular assembly with streptavidin (see FIG. 1), thereby coupling the peptide of interest to the sensor to create the ligand sensor device (LSD). Each LSD was placed in an individual Petri dish and stored no longer than 24 hours at 4° C. until affinity assays were performed.
Quantifying the signal output from the ligand sensor device (LSD). Measurements were carried out using a PM-740 Maxtek plating monitor with a frequency resolution of 0.5 Hz at 5 MHz. The voltage output from the Maxtek device is directly related to the resonance frequency of the quartz crystal sensor. Changes in the resonance frequency of the quartz crystal sensor were used to monitor the binding of homogenate vesicles to the sensor surface.
To evaluate the affinity of a ligand, the LSD was positioned in the probe arm of the instrument just before delivery of samples. Immediately after recording was started, 1000 μl phosphate buffered saline (PBS) was delivered with a pipette to the dry sensor surface and voltage was recorded for 4–8 minutes. The PBS was then removed carefully with a plastic pipette tip and a new recording was initiated. Tissue homogenates of different dilutions were added sequentially to the sensor and the same measuring procedure was followed after each addition. Each experiment was replicated 2–4 times, and the temperature of all samples was 25° C. Voltage output of the LSD was recorded and records were analyzed offline.
Binding selectivity of the Ligand Sensor Device.

[1] = tested on: feline skeletal muscle homogenate; experiment: Ligand sensor device binding assay, feline muscle homogenate; design: species or system cat
Protocol: as §1
A 7-mer phage display peptide library (New England Biolabs, Inc., Beverly, Mass., USA) was screened as described in Samoylova and Smith (1999) Muscle & Nerve 22: 460–466.
Preparation of the sensor. AT-cut planar quartz crystal sensors with a 5 MHz nominal oscillating frequency were purchased from Maxtek, Inc. Circular gold electrodes were deposited on both sides of the crystal sensor for the electrical connection to the oscillatory circuit. The sensor was prepared to be coupled to the peptide by the addition of a Langmuir-Blodgett film of biotinylated lipid. Lipid monolayer depositions were carried out using a Langmuir-Blodgett (LB) film balance KSV 2200 LB (KSV-Chemicals, Finland). This fully computerized system includes a Wilhelmy-type surface balance (range 0–100 mN/m; sensitivity 0.05 mN/m), a Teflon trough (45×15 cm^2), a variable speed motor-driven Teflon barrier (0–200 mm/min), and a laminar flow hood. The trough was mounted on a 200 kg marble table. Vibration control was provided by interposing rubber shock absorbers and by mounting the laminar flow hood on a separate bench. Surface pressure was monitored by use of a sandblasted platinum plate of 4-cm perimeter. The temperature of the aqueous subphase (20° C. ±0.1° C.) was controlled by water circulation through a quartz tube coil on the bottom of the trough. The temperature of the aqueous subphase was measured by a thermistor located just below the air/liquid interface. […]

[2] = biological target: murine skeletal muscle homogenates; experiment: Ligand sensor device (acoustic wave sensor) binding assay, murine muscle homogenate; design: species or system mouse; conditions: for Kd: read-out: apparent dissociation constant Kd
Protocol: as §1, with “USA). […]” for “USA).”
Preparation of the sensor. AT-cut planar quartz crystal sensors with a 5 MHz nominal oscillating frequency were purchased from Maxtek, Inc. Circular gold electrodes were deposited on both sides of the crystal sensor for the electrical connection to the oscillatory circuit. The sensor was prepared to be coupled to the peptide by the addition of a Langmuir-Blodgett film of biotinylated lipid. Lipid monolayer depositions were carried out using a Langmuir-Blodgett (LB) film balance KSV 2200 LB (KSV-Chemicals, Finland). This fully computerized system includes a Wilhelmy-type surface balance (range 0–100 mN/m; sensitivity 0.05 mN/m), a Teflon trough (45×15 cm^2), a variable speed motor-driven Teflon barrier (0–200 mm/min), and a laminar flow hood. The trough was mounted on a 200 kg marble table. Vibration control was provided by interposing rubber shock absorbers and by mounting the laminar flow hood on a separate bench. Surface pressure was monitored by use of a sandblasted platinum plate of 4-cm perimeter. The temperature of the aqueous subphase (20° C. ±0.1° C.) was controlled by water circulation through a quartz tube coil on the bottom of the trough. The temperature of the aqueous subphase was measured by a thermistor located just below the air/liquid interface.
Monolayers were transferred onto the gold surface of an acoustic wave sensor using the Langmuir-Blodgett technique. Lipid solutions were spread on the aqueous subphase as hexane solutions (1 mg/ml) containing 2% ethanol (Ito et al. (1989) Thin Solid Films 180: 1–13). The lipid solutions contained phospholipid (N (biotinoyl)-1,2-dihexadecanoyl-SN-glycero-3-phosphoethanolamine). The aqueous subphase was a solution containing 55 mM KCl, 4 mM NaCl, 0.1 mM CaCl2, 1 mM MgCl2 and 2 mM 3-(N-morpholino)-propanesulfonic acid (MOPS) made with deionized double distilled water (pH 7.4). After spreading, the monolayer was allowed to equilibrate and stabilize for 10 min at 19° C.

murine brain homogenate = experiment: Ligand sensor device selectivity assay, murine brain homogenate; format: binding, mouse
Protocol: as §1, §2
(§3) Quantifying the signal output from the ligand sensor device (LSD). Measurements were carried out using a PM-740 Maxtek plating monitor with a frequency resolution of 0.5 Hz at 5 MHz. […]
(§4) To evaluate the affinity of a ligand, the LSD was positioned in the probe arm of the instrument just before delivery of samples. Immediately after recording was started, 1000 μl phosphate buffered saline (PBS) was delivered with a pipette to the dry sensor surface and voltage was recorded for 4–8 minutes. […] Voltage output of the LSD was recorded and records were analyzed offline. […]

murine liver homogenate = experiment: Ligand sensor device selectivity assay, murine liver homogenate; format: binding, mouse
Protocol: as §1, §2, §3, §4

[3] = Table 2, feline muscle homogenate
[4] = Table 1, blocked muscle: homogenate (50 mg/ml) incubated with free peptide (1 mg/ml) 1 hour at room temperature
[5] = Table 2, murine muscle homogenate

7-mer peptide selected in vivo for murine myofibers by phage display; coupled to the sensor as ASSLNIAGGGSK-Biotin (SEQ ID NO:3) (ASSLNIAGGGSK-{Biotin′}; also: coupled to the sensor)
kidney homogenate needed to induce same response as 0.01 mg/ml muscle homogenate (murine kidney homogenate): more than 100 mg/ml
sensitivity (S), slope of dose response (murine kidney homogenate; Table 3, murine kidney): 41.8 ± 7.0 V/decade
selective preference for ligand(s) in muscle over kidney homogenates, factor (murine kidney homogenate; at 0.01 mg/ml muscle homogenate): more than 10,000
sensor response (murine kidney homogenate; murine kidney preparation): insignificant responses
Selectivity coefficient, K (murine kidney homogenate; murine kidney, K = Stissue/Smuscle): (3.1 ± 1.0) × 10^−1 relative units
Mmax [1, 3]: 32.8 ± 2.0 ng/cm^2
apparent dissociation constant Kd [1, 3]: 370 ± 50 µg/mL
Hill coefficient ([1]; Table 2, feline muscle homogenate, equation 2): 0.93 ± 0.04
sensor response ([1]; feline muscle homogenates, compared to murine muscle): appreciable, but lower responses
apparent dissociation constant Kd [2, 4]: 320 ± 50 µg/mL
apparent maximal surface concentration of protein Mmax [2, 4]: 34.4 ± 3.0 ng/cm^2
apparent dissociation constant Kd ([2]; Table 1, murine muscle homogenate, calculated from Hill plots): 280 µg/mL
apparent maximal surface concentration of protein Mmax ([2]; Table 1, murine muscle homogenate, estimated from increase of sensor voltage): 54.0 ± 4.0 ng/cm^2
Mmax [2, 5]: 50.5 ± 3.0 ng/cm^2
apparent dissociation constant Kd [2, 5]: 320 ± 50 µg/mL
Hill coefficient ([2]; Table 2, murine muscle homogenate, equation 2): 0.92 ± 0.04
sensitivity (S), slope of dose response ([2]; Table 3, murine muscle): 134 ± 20.0 V/decade
apparent dissociation constant, level ([2]; assuming only a fraction of molecules on vesicle surface bind the peptide): subnanomolar level
Kd ([2]; corrected for target molecules being ~0.5% of vesicle mass): 5 to 10 nM
Selectivity coefficient, K ([2]; murine muscle (reference), K = Stissue/Smuscle): 1.0 relative units
Activity ratio, R ([2]; murine muscle (reference), protein concentration 0.01 mg/ml): 1.0 relative units
time to approach steady-state signal output τ2 ([2]; murine muscle homogenate, each concentration, FIG. 2): 70 ± 20 s
initial delay in signal output response τ1 ([2]; murine muscle homogenate, independent of concentration, FIG. 2): 8 ± 1 s
sensor response ([2]; murine muscle homogenates): strong response
protein concentration at which signal was saturated ([2]; murine muscle homogenates, FIG. 3): about 5.0 mg/ml
sensor signal after blocking ([2]; preincubation of muscle homogenates with free peptide): significantly reduced signal
Kd ([2]; speculating target molecule of about 75–150 kD): 1000 to 2000 nM
sensitivity (S), slope of dose response (murine brain homogenate; Table 3, murine brain): 62.5 ± 16 V/decade
sensor response (murine brain homogenate; murine brain preparation): insignificant responses
Selectivity coefficient, K (murine brain homogenate; murine brain, K = Stissue/Smuscle): (4.6 ± 1.4) × 10^−1 relative units
Activity ratio, R (murine brain homogenate; murine brain, R = ΔCmuscle/ΔCtissue at protein concentration 0.01 mg/ml): (3.4 ± 1.1) × 10^−3 relative units
sensitivity (S), slope of dose response (murine liver homogenate; Table 3, murine liver): 67.3 ± 6.0 V/decade
sensor response (murine liver homogenate; murine liver preparation): insignificant responses
Selectivity coefficient, K (murine liver homogenate; murine liver, K = Stissue/Smuscle): (5.0 ± 1.5) × 10^−1 relative units
Activity ratio, R (murine liver homogenate; murine liver, R = ΔCmuscle/ΔCtissue at protein concentration 0.01 mg/ml): (1.1 ± 0.4) × 10^−3 relative units
